Source: PubChem BioAssay (NCI)
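Values below derive from 48-hour exposures of cells grown in 96-well plates, with endpoints linearly interpolated between the two concentrations bracketing the appropriate inhibition level. At the GI50, growth is halved. At the TGI there is no net growth.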

Tests used:
Experiment in all cases: NCI anticancer screen, dose series, 48 h
[1] = system: A549 NSCLC
[2] = system: BT-549 breast
[3] = system: LOX IMVI melanoma
[4] = system: MDA-MB-435
[5] = system: NCI-H522 lung
[6] = system: NCI/ADR-RES ovarian
[7] = system: SW-620 colon

`Cc1ccc(C(=O)CN(/C=C/C(=O)C(F)(F)F)c2ccc(S(N)(=O)=O)cc2)cc1` was tested, and the GI50 [1] was 63.5 µM, the TGI [1] was > 100 µM and the GI50 [2] was 58.9 µM. The TGI [2] was > 100 µM, the GI50 [3] was 76 µM and the TGI [3] was > 100 µM. For the same compound, the GI50 [4] was > 100 µM, the TGI [4] was > 100 µM and the GI50 [5] was 53.8 µM. The TGI [5] was > 100 µM, the GI50 [6] was 62.9 µM and the TGI [6] was > 100 µM. The GI50 [7] was > 100 µM and the TGI [7] was > 100 µM.
For `Oc1cccnc1CN1CCCCC1`, the TGI [1] was > 100 µM, the TGI [2] was > 100 µM and the TGI [3] was > 100 µM. For the same compound, the TGI [4] was > 100 µM, the TGI [5] was > 100 µM and the TGI [6] was > 100 µM. For the same compound, the TGI [7] was > 100 µM.
`CN1C/C=C\CCOc2cccc(c2)-c2ccnc(n2)Nc2cccc(c2)C1` showed a GI50 [1] of 0.0469 µM, a TGI [1] of 0.8 µM and a GI50 [2] of 0.0789 µM. It also gave a TGI [2] of 0.393 µM, a GI50 [3] of 0.0343 µM and a TGI [3] of 1.06 µM. The GI50 [4] was 0.0624 µM, the TGI [4] was 0.195 µM and the GI50 [5] was 0.0708 µM. For the same compound, the TGI [5] was 0.334 µM, the GI50 [6] was 0.0654 µM and the TGI [6] was 1.45 µM. It also gave a GI50 [7] of 0.0439 µM and a TGI [7] of 4.49 µM.
For `COc1cc(/C=C/c2cc(/C=C/c3ccc(O)c(OC)c3)n(C(=O)Nc3ccc(F)c(Cl)c3)n2)ccc1O`, the GI50 [1] was 0.387 µM, the TGI [1] was 3.47 µM and the GI50 [2] was 0.921 µM. It also gave a TGI [2] of 7.98 µM, a GI50 [3] of 0.0792 µM and a TGI [3] of 1.85 µM. It also gave a GI50 [4] of 0.0223 µM, a TGI [4] of 0.102 µM and a GI50 [6] of 0.126 µM. It also gave a TGI [6] of 3.09 µM.
For `COc1ccc(-c2n[nH]nc2-c2cc(OC)c(OC)c(OC)c2)cc1`, the GI50 [1] was < 0.01 µM, the TGI [1] was 38.3 µM and the GI50 [3] was < 0.01 µM. For the same compound, the TGI [3] was > 57 µM, the GI50 [4] was < 0.01 µM and the TGI [4] was < 0.01 µM. For the same compound, the GI50 [5] was < 0.01 µM, the TGI [5] was < 0.01 µM and the GI50 [7] was < 0.01 µM. For the same compound, the TGI [7] was > 100 µM.
In the case of `COc1cc2c3c(n(CCCNC(=O)OCC4c5ccccc5-c5ccccc54)c(=O)c2cc1OC)-c1cc2c(cc1/C3=C\CCNC(=O)OCC1c3ccccc3-c3ccccc31)OCO2`, the GI50 [1] is reported as > 26.6 µM, the TGI [1] is reported as > 50 µM and the GI50 [2] is reported as 12.4 µM. For the same compound, the TGI [2] was > 50 µM, the GI50 [3] was > 22.5 µM and the TGI [3] was > 50 µM. For the same compound, the GI50 [4] was > 28.9 µM, the TGI [4] was 49 µM and the GI50 [5] was > 11 µM. The TGI [5] was > 23.6 µM, the GI50 [6] was > 38 µM and the TGI [6] was > 50 µM. For the same compound, the GI50 [7] was > 24.1 µM and the TGI [7] was > 50 µM.
For `COc1ccc(Cn2cc3c(c2-c2ccccc2)CC(C)(C)c2cnoc2-3)cc1`, the GI50 [1] was 3.17 µM, the TGI [1] was > 100 µM and the GI50 [3] was 3.55 µM. For the same compound, the TGI [3] was > 100 µM, the GI50 [4] was 0.279 µM and the TGI [4] was 1.01 µM. For the same compound, the GI50 [5] was 0.314 µM, the TGI [5] was 1.9 µM and the GI50 [7] was 0.806 µM. The TGI [7] was > 100 µM.
With `C[C@@]12CC=C3c4nc(Nc5cccc(O)c5)sc4CC[C@]3(C)[C@H]1CC[C@]1(C)C(=O)CC[C@@H]21` the GI50 [1] was 4.6 µM, the TGI [1] was > 100 µM and the GI50 [2] was 1.61 µM. For the same compound, the TGI [2] was 6.47 µM, the GI50 [3] was 1.67 µM and the TGI [3] was 3.15 µM. The GI50 [5] was 2.14 µM, the TGI [5] was 4.64 µM and the GI50 [6] was 3.1 µM. The TGI [6] was > 100 µM, the GI50 [7] was 2.13 µM and the TGI [7] was 4.82 µM.
For `CC(=O)CSCc1ccccn1`, the TGI [1] was > 100 µM, the TGI [2] was > 100 µM and the TGI [3] was > 100 µM. For the same compound, the TGI [4] was > 100 µM, the TGI [5] was 45.3 µM and the TGI [6] was > 100 µM. The TGI [7] was > 100 µM.
With `NCC1Nc2ccccc2[C@@H](O)C1O` (some centres not stated) the TGI [1] was > 100 µM, the TGI [3] was > 100 µM and the TGI [4] was > 100 µM. For the same compound, the TGI [6] was > 100 µM and the TGI [7] was > 100 µM.
For `O=S(=O)(N=S(c1ccccc1)c1ccccc1)c1ccccc1`, the TGI [1] was > 100 µM, the TGI [2] was > 100 µM and the TGI [4] was > 100 µM. For the same compound, the TGI [6] was > 100 µM and the TGI [7] was > 100 µM.
`CN1c2ccc(Cl)cc2C(=O)NC1c1ccc([N+](=O)[O-])s1` (configuration not stated) was tested, and the TGI [1] was 92 µM, the TGI [2] was 34.8 µM and the TGI [3] was 28.8 µM. The TGI [4] was 31.4 µM, the TGI [6] was 35.3 µM and the TGI [7] was > 100 µM.
In the case of `COc1cc(-c2ccc3c(c2)NC(=O)/C3=C\c2ccc[nH]2)ccc1O`, the GI50 [1] is reported as 0.0374 µM, the TGI [1] is reported as > 50 µM and the GI50 [2] is reported as 0.0968 µM. The TGI [2] was > 50 µM, the GI50 [3] was 0.0353 µM and the TGI [3] was > 50 µM. The GI50 [5] was 0.00747 µM, the TGI [5] was > 50 µM and the GI50 [6] was 0.0177 µM. For the same compound, the TGI [6] was > 50 µM, the GI50 [7] was 0.0188 µM and the TGI [7] was > 50 µM.
`OC[C@H]1CCCC1O` (some centres not stated) was tested, and the TGI [1] was > 100 µM, the TGI [2] was > 100 µM and the TGI [4] was > 100 µM. For the same compound, the TGI [5] was > 100 µM, the TGI [6] was > 100 µM and the TGI [7] was > 100 µM.
In the case of `CCCN1CCC(=O)N(CCC(F)(F)C(F)(F)C(F)(F)C(F)(F)C(F)(F)C(F)(F)F)C1=S`, the TGI [1] is reported as > 100 µM, the TGI [2] is reported as > 100 µM and the TGI [4] is reported as > 100 µM. For the same compound, the TGI [5] was > 100 µM and the TGI [7] was > 100 µM.
`Cc1cc(C(=O)Nc2ncc(Cc3cccc(C(F)(F)F)c3)s2)c2ccccc2n1` was tested, and the GI50 [1] was 3.19 µM, the TGI [1] was > 100 µM and the GI50 [2] was 3.61 µM. The TGI [2] was > 100 µM, the GI50 [5] was 2.33 µM and the TGI [5] was > 100 µM. The GI50 [6] was 2.06 µM, the TGI [6] was > 100 µM and the GI50 [7] was 1.21 µM. For the same compound, the TGI [7] was > 100 µM.
In the case of `Cc1cccc(N2CCN(C(=S)c3ccc4c(c3)OCO4)CC2)c1`, the GI50 [1] is reported as 1.07 µM, the TGI [1] is reported as > 100 µM and the GI50 [3] is reported as 1.88 µM. The TGI [3] was > 100 µM, the GI50 [6] was 0.338 µM and the TGI [6] was > 100 µM. The GI50 [7] was 0.467 µM and the TGI [7] was > 100 µM.
`CCOC(=O)c1c(C)n(Cc2ccc(Cl)cc2Cl)c2c1c(CN(C)C)c(O)c1[nH]cnc12` showed a GI50 [1] of 15.9 µM, a TGI [1] of 32.5 µM and a GI50 [2] of 23.6 µM. For the same compound, the TGI [2] was 48.5 µM, the GI50 [3] was 15.7 µM and the TGI [3] was 29.1 µM. It also gave a GI50 [4] of 23.6 µM, a TGI [4] of 51.1 µM and a GI50 [5] of 17.1 µM. The TGI [5] was 33.4 µM, the GI50 [7] was 20.1 µM and the TGI [7] was 34.3 µM.
